Measurements published in paper PMC4580724 (Clinical Pharmacokinetics, 2015).
Values joined by “and” are separate entries in the source; they are usually repeats but may differ in a detail not shown here. Equal entries are not always repeated. Where two headings read alike, the source gives them in different places.

How the values were obtained:
[1] = format: in vivo, human; conditions: for AUC∞ geometric mean ratio test/reference (90 % CI) / C max geometric mean ratio test/reference (90 % CI): substrate + enzalutamide 160 mg/day vs substrate + placebo-to-match, n = 14
CYP2C8 = target: T1, CYP2C8 (Homo sapiens, UniProt P10632); conditions: human hepatic microsomes; cited from earlier work
T1 sequence (P10632 1-490): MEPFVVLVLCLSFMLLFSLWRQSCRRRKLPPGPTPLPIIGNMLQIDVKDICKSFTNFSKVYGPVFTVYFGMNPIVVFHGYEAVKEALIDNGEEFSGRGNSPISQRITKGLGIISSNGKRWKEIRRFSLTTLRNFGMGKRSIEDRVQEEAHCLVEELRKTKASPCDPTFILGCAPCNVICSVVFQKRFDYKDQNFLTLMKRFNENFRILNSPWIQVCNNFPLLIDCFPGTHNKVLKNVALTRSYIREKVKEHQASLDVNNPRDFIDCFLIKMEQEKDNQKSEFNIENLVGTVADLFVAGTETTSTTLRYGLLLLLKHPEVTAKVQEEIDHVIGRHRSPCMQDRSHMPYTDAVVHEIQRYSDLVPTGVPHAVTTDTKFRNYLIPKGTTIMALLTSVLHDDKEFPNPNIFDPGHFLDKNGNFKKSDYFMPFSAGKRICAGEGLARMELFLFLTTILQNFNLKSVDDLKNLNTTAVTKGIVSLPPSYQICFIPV

CYP2B6 = conditions: human hepatic microsomes; cited from earlier work
[2] = cited from earlier work
[3] = format: in vivo, human; conditions: for t max: median [range]; for AUCτ: one 24-h dosing interval at steady state, 14 patients, enzalutamide 160 mg once daily for 49 days
[4] = cited from earlier work; remark: listed apart in the source
CYP2C9 = conditions: human hepatic microsomes; cited from earlier work
CYP2C19 = conditions: human hepatic microsomes; cited from earlier work
[5] = patients with mCRPC; cited from earlier work
CYP3A4 [6] = conditions: human primary hepatocyte cultures; cited from earlier work
[7] = format: in vivo, human
[8] = cited from earlier work; remark: listed apart in the source
CYP3A4 [9] = test: Clinical effect of enzalutamide on CYP3A4; conditions: enzalutamide 160 mg once daily; oral midazolam
[10] = Population pharmacokinetic modeling and simulation; design: species or system human; conditions: with gemfibrozil vs enzalutamide alone
[11] = arm 2
[12] = enzalutamide 160 mg/day vs placebo-to-match
[13] = 14 patients taking enzalutamide 160 mg once daily for 49 days, mean ± standard deviation
[14] = 14 patients taking enzalutamide 160 mg once daily for 49 days
[15] = with itraconazole vs enzalutamide alone, observed data
[16] = with itraconazole vs enzalutamide alone

OCc1ncc2n1-c1ccc(Cl)cc1C(c1ccccc1F)=NC2 [1-Hydroxy-midalozam, 1-hydroxy-midazolam]
decrease in AUC∞ by enzalutamide [1, 12]: 76% | AUC∞ geometric mean ratio test/reference (90 % CI) [1]: 0.24 (0.20–0.28) | C max geometric mean ratio test/reference (90 % CI) [1]: 0.29 (0.24–0.35)

COc1ccc2nc([S+]([O-])Cc3ncc(CO)c(OC)c3C)[nH]c2c1 (stereo not drawn) [5-Hydroxy-omeprazole]
decrease in AUC∞ by enzalutamide [1, 12]: 54% | AUC∞ geometric mean ratio test/reference (90 % CI) [1]: 0.46 (0.39–0.53) | C max geometric mean ratio test/reference (90 % CI) [1]: 0.64 (0.50–0.83)

CC(=O)C[C@@H](c1ccccc1)c1c(O)c2ccc(O)cc2oc1=O [7-Hydroxy-S-warfarin]
decrease in AUC∞ by enzalutamide [1, 12]: 53% | AUC∞ geometric mean ratio test/reference (90 % CI) [1]: 0.47 (0.35–0.63) | C max geometric mean ratio test/reference (90 % CI) [1]: 0.83 (0.71–0.99)

CC1(C)C(=O)N(c2ccc(C#N)c(C(F)(F)F)c2)C(=S)N1c1ccc(C(=O)O)c(F)c1 [Carboxylic acid metabolite]
inhibition of CYP2C8 (CYP2C8): may act as inhibitors | inhibition of CYP2B6 (CYP2B6): lesser inhibitory effects | pharmacological activity (primary and secondary pharmacodynamics) [2]: pharmacologically inactive | C max [3, 13]: 8860 ± 6520 ng/mL | C trough [3, 13]: 6320 ± 5190 ng/mL | t max [3, 14]: 3.5 [0.0–24.0] h | AUCτ ([3]; mean ± standard deviation): 193 ± 144 µg·h/mL | plasma concentrations lower than enzalutamide ([4]; circulating concentrations): approximately 25% | inhibition of CYP2C9 (CYP2C9): lesser inhibitory effects | inhibition of CYP2C19 (CYP2C19): may act as inhibitors

CNC(=O)c1ccc(N2C(=S)N(c3ccc(C#N)c(C(F)(F)F)c3)C(=O)C2(C)C)cc1F [Enzalutamide, enzalutamide, reference compound]
inhibition of CYP2C8 (CYP2C8): may act as inhibitors | inhibition of CYP2B6 (CYP2B6): lesser inhibitory effects | maximum tolerated dose [5]: 240 mg/day | induction of CYP3A4 messenger RNA and enzymatic activity (CYP3A4 [6]): may cause increases in messenger RNA and enzymatic activity for CYP3A4 | C trough [3, 13]: 12000 ± 3510 ng/mL | CL/F [3, 13]: 0.52 ± 0.09 L/h | concentration at 49 d ([3]; human, plasma, oral, 160 mg once daily): 12000 ng/mL | Cmax ([3]; human, plasma, oral, 160 mg, C max, 14 patients taking enzalutamide 160 mg once daily for 49 days, mean ± standard deviation): ~17000 ng/mL | increase in AUC∞ [7, 15]: 1.41 fold | aqueous solubility [8]: ≤ 2.0 µg/mL | CYP3A4 induction classification (CYP3A4 [9]): strong inducer | inhibition of CYP2C9 (CYP2C9): lesser inhibitory effects | inhibition of CYP2C19 (CYP2C19): may act as inhibitors | increase in AUC∞ [10]: 4.26 fold

CC(O)c1ccc(CCOc2ccc(CC3SC(=O)NC3=O)cc2)nc1 (stereo not drawn) [Hydroxy-pioglitazone (M-IV), Hydroxy-pioglitazone]
decrease in AUC∞ by enzalutamide [1, 12]: 37% | AUC∞ geometric mean ratio test/reference (90 % CI) [1]: 0.63 (0.52–0.77) | C max geometric mean ratio test/reference (90 % CI) [1]: 0.60 (0.52–0.70)

CC1(C)C(=O)N(c2ccc(C#N)c(C(F)(F)F)c2)C(=S)N1c1ccc(C(N)=O)c(F)c1 [N-desmethyl enzalutamide]
inhibition of CYP2C8 (CYP2C8): may act as inhibitors | inhibition of CYP2B6 (CYP2B6): lesser inhibitory effects | C max [3, 13]: 12700 ± 3770 ng/mL | C trough [3, 13]: 10600 ng/mL and 10600 ± 3270 ng/mL | t max [3, 14]: 4.0 [0.0–24.0] h | AUCτ ([3]; mean ± standard deviation): 278 ± 85.5 µg·h/mL | circulating plasma concentrations relative to enzalutamide [4]: approximately the same plasma concentrations as enzalutamide | decrease in Cmax ([7]; with gemfibrozil vs enzalutamide alone): 44% | decrease in AUC18 d ([7]; with gemfibrozil vs enzalutamide alone, observed data): 67% | decrease in AUC18 d [7, 16]: 4% | decrease in Cmax [7, 16]: 14% | increase in AUC∞ [7, 15]: 1.21 fold | inhibition of CYP2C9 (CYP2C9): lesser inhibitory effects | inhibition of CYP2C19 (CYP2C19): may act as inhibitors | decrease in AUC∞ [10]: 25%

CC(=O)C[C@H](c1ccccc1)c1c(O)c2ccccc2oc1=O [R-warfarin, reference compound]
decrease in AUC∞ by enzalutamide [1, 12]: 45%

CC(=O)C[C@@H](c1ccccc1)c1c(O)c2ccccc2oc1=O [S-warfarin, reference compound]
decrease in AUC∞ by enzalutamide [1, 12]: 56%

Cc1ccc(C)c(OCCCC(C)(C)C(=O)O)c1 [gemfibrozil]
adverse event above NCI-CTCAE grade 1 with possible relationship [11]: grade 2 flatulence in one subject

Cc1ncc2n1-c1ccc(Cl)cc1C(c1ccccc1F)=NC2 [midazolam, reference compound]
decrease in AUC∞ by enzalutamide [1, 12]: 86% | AUC∞ geometric mean ratio test/reference (90 % CI) [1]: 0.14 (0.12–0.17) | C max geometric mean ratio test/reference (90 % CI) [1]: 0.23 (0.20–0.27)

COc1ccc2[nH]c([S+]([O-])Cc3ncc(C)c(OC)c3C)nc2c1 (stereo not drawn) [omeprazole, reference compound]
decrease in AUC∞ by enzalutamide [1, 12]: 70% | AUC∞ geometric mean ratio test/reference (90 % CI) [1]: 0.30 (0.24–0.36) | C max geometric mean ratio test/reference (90 % CI) [1]: 0.38 (0.26–0.54)

CCc1ccc(CCOc2ccc(CC3SC(=O)NC3=O)cc2)nc1 (stereo not drawn) [pioglitazone, reference compound]
increase in AUC∞ by enzalutamide [1, 12]: 20% | AUC∞ geometric mean ratio test/reference (90 % CI) [1]: 1.20 (0.98–1.47) | C max geometric mean ratio test/reference (90 % CI) [1]: 0.82 (0.67–1.01)
